Source: article PMC8819907 (Journal of Experimental & Clinical Cancer Research : CR, 2022)
Several values for one entry are separate records, joined by “and”; a condition that tells them apart may be missing. Equal values may be shown once. Read-outs that look alike come from different tables or passages of the source.

Legend:
[1] = tested on: panel of 183 kinases, including MEK5, CRAF, BRAF, ERK1, and ERK2; design: method as in ref 18 (a number printed in a supplementary file, which may have a reference list of its own: not looked up in the article's list); details: cited from earlier work
[2] = tested on: RAF-mediated MEK1 activation; design: method as in ref 19 (a number printed in a supplementary file, which may have a reference list of its own: not looked up in the article's list); details: read-out: IC50, inhibition of RAF-mediated MEK1 activation; cited from earlier work
[3] = tested on: patients with solid tumors or lymphoma; design: method as in ref 20 (a number printed in a supplementary file, which may have a reference list of its own: not looked up in the article's list); details: cited from earlier work
[4] = design: method as in ref 17 (a number printed in a supplementary file, which may have a reference list of its own: not looked up in the article's list); details: cited from earlier work
advanced solid tumors = experiment: Tumor response (RECIST 1.1) and PFS (Kaplan Meier); assay type: in vivo, human;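 note: patients were grouped by hepatic function into four groups, and PFS differences among these groups were tested with a log rank test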
clinical = details: human, 2 mg
MEK2 = tested on: MEK2; design: method as in ref 17 (a number printed in a supplementary file, which may have a reference list of its own: not looked up in the article's list); details: read-out: IC50 against MEK2; cited from earlier work
[5] = tested on: BRAF-mutant Colo205, A375P F11s, and HT-29 human tumor xenograft; details: 0.3 mg/kg; cited from earlier work
[6] = tested on: advanced cancer patients with varying degrees of hepatic dysfunction; details: human, in vivo
[7] = tested on: melanoma, pancreatic cancer, CRC; details: cited from earlier work
[8] = tested on: patients in clinical trials of trametinib; details: cited from earlier work
[9] = tested on: unresectable stage IIIC or IV cutaneous melanoma with BRAF V600E or V600K mutation; details: cited from earlier work
[10] = cited from earlier work
A549 xenograft = tested on: A549 xenograft; design: method as in ref 17 (a number printed in a supplementary file, which may have a reference list of its own: not looked up in the article's list); details: cited from earlier work
CYP 2B6 and 3A4 = details: cited from earlier work
CYP enzymes = details: cited from earlier work
[11] = tested on: acute myeloid leukemia or myelodysplastic syndrome; details: cited from earlier work
[12] = tested on: MRP2, BSEP, P-gp, BCRP, OATP1B1, OATP1B3, OAT1, OAT3, OCT2, MATE1; details: cited from earlier work
[13] = 2 mg monotherapy, 96 total patients
[14] = 13 patients with KRAS or NRAS mutations

CC(=O)Nc1cccc(-n2c(=O)n(C3CC3)c(=O)c3c(Nc4ccc(I)cc4F)n(C)c(=O)c(C)c32)c1 [Trametinib, equimolecular combination of acetamide, N-[3-[3-cyclopropyl-5-[(2-fluoro-4-iodophenyl)amino]-3,4,6,7-tetrahydro6,8-dimethyl-2,4,7-trioxopyrido[4,3-d]pyrimidin-1(2H)-yl]phenyl] with 1,1’-sulfinylbis[methane]]
specificity against a panel of 183 kinases [1]: specificity of trametinib was confirmed
IC50 [2]: 0.6 nM
MTD [3]: 3 mg QD
recommended phase 2 dose (RP2D) [3]: 2 mg QD
Cmax ([4]; Day 7, 3 mg/kg, read-out: average Cmax in blood): 1410 nM
estimated half-life (t1/2) ([4]; mice): 33 h
Best Response: Partial Response (advanced solid tumors; Mild DL1 2 mg): 0 (0) n (%)
Best Response: Progressive Disease (advanced solid tumors; Mild DL1 2 mg): 4 (66.7) n (%)
Best Response: Stable Disease (advanced solid tumors; Mild DL1 2 mg): 2 (33.3) n (%)
Best Response: Stable Disease (advanced solid tumors; Mild DL1 2 mg, listed as trametinib): 2 (33.3%) n (%)
median PFS (advanced solid tumors; Mild group): 1.74 months
Best Response: Partial Response (advanced solid tumors; Mod DL1 1.5 mg): 0 (0) n (%)
Best Response: Progressive Disease (advanced solid tumors; Mod DL1 1.5 mg): 1 (25.0) n (%)
Best Response: Stable Disease (advanced solid tumors; Mod DL1 1.5 mg): 3 (75.0) n (%)
Best Response: Stable Disease (advanced solid tumors; Mod DL1 1.5 mg, listed as trametinib): 3 (75%) n (%)
Best Response: Partial Response (advanced solid tumors; Mod DL+1 2 mg): 0 (0) n (%)
Best Response: Progressive Disease (advanced solid tumors; Mod DL+1 2 mg): 1 (33.3) n (%)
Best Response: Stable Disease (advanced solid tumors; Mod DL+1 2 mg): 2 (66.7) n (%)
Best Response: Stable Disease (advanced solid tumors; Mod DL+1 2 mg, listed as trametinib): 2 (66%) n (%)
median PFS (advanced solid tumors; Mod group): 3.45 months
Best Response: Partial Response (advanced solid tumors; Norm 2 mg): 2 (15.4) n (%)
Best Response: Progressive Disease (advanced solid tumors; Norm 2 mg): 4 (30.8) n (%)
Best Response: Stable Disease (advanced solid tumors; Norm 2 mg): 7 (53.8) n (%)
Best Response: Stable Disease (advanced solid tumors; Norm 2 mg, listed as trametinib): 7 (53.8%) n (%)
median PFS (advanced solid tumors; Norm group): 3.62 months
Best Response: Partial Response (advanced solid tumors; Sev DL1 1 mg): 0 (0) n (%)
Best Response: Progressive Disease (advanced solid tumors; Sev DL1 1 mg): 1 (25.0) n (%)
Best Response: Stable Disease (advanced solid tumors; Sev DL1 1 mg): 3 (75.0) n (%)
Best Response: Stable Disease (advanced solid tumors; Sev DL1 1 mg, listed as trametinib): 3 (75%) n (%)
Best Response: Partial Response (advanced solid tumors; Sev DL+1 1.5 mg): 0 (0) n (%)
Best Response: Progressive Disease (advanced solid tumors; Sev DL+1 1.5 mg): 1 (100%) n (%)
Best Response: Stable Disease (advanced solid tumors; Sev DL+1 1.5 mg): 0 (0) n (%)
Best Response: Stable Disease (advanced solid tumors; Sev DL+1 1.5 mg, listed as trametinib): 0 (0%) n (%)
median PFS (advanced solid tumors; Sev group): 2.11 months
Best Response: Partial Response (advanced solid tumors; Total): 2
Best Response: Progressive Disease (advanced solid tumors; Total): 12
Best Response: Stable Disease (advanced solid tumors; Total): 17
Cmax (clinical; in vivo): 27.6 ng/mL
AUC(0-t) (clinical; plasma, oral, AUC0 − 24, Geo mean (%CV), Mild (n = 6), dose normalized to 2 mg): 352 ng·h/mL
AUC(0-t) (clinical; plasma, oral, AUC0 − 24, Geo mean (%CV), Mod (n = 3), dose normalized to 2 mg): 311 ng·h/mL
AUC(0-t) (clinical; plasma, oral, AUC0 − 24, Geo mean (%CV), Sev (n = 3), dose normalized to 2 mg): 229 ng·h/mL
AUC(0-t) (clinical; plasma, oral, AUC0 − 24, Mean (±SD), Mild (n = 6), dose normalized to 2 mg): 388 ng·h/mL
AUC(0-t) (clinical; plasma, oral, AUC0 − 24, Mean (±SD), Mod (n = 3), dose normalized to 2 mg): 312 ng·h/mL
AUC(0-t) (clinical; plasma, oral, AUC0 − 24, Mean (±SD), Norm (n = 10), dose normalized to 2 mg): 469 ng·h/mL
AUC(0-t) (clinical; plasma, oral, AUC0 − 24, Mean (±SD), Sev (n = 3), dose normalized to 2 mg): 240 ng·h/mL
Cmax (clinical; plasma, oral, Cmax, Geo mean (%CV), Mild (n = 6), dose normalized to 2 mg): 26.2 ng/mL
Cmax (clinical; plasma, oral, Cmax, Geo mean (%CV), Mod (n = 3), dose normalized to 2 mg): 16.8 ng/mL
Cmax (clinical; plasma, oral, Cmax, Geo mean (%CV), Norm (n = 10), dose normalized to 2 mg): 26.2 ng/mL
Cmax (clinical; plasma, oral, Cmax, Geo mean (%CV), Sev (n = 3), dose normalized to 2 mg): 15.3 ng/mL
Cmax (clinical; plasma, oral, Cmax, Mean (±SD), Mild (n = 6), dose normalized to 2 mg): 29.5 ng/mL
Cmax (clinical; plasma, oral, Cmax, Mean (±SD), Mod (n = 3), dose normalized to 2 mg): 16.9 ng/mL
tumor regression in the Colo205 model [5]: tumor regression was observed
RP2D [6]: 2 mg QD
partial response (PR) ([7]; 9 patients with BRAF wt melanoma): 2 patients
overall objective response rate (ORR) ([7]; 14 patients with BRAF-mutant melanoma, 2 mg QD): 43%
complete responses (CRs) ([7]; 14 patients with BRAF-mutant melanoma): 2
PRs ([7]; 26 evaluable pancreatic cancer patients): 2
objective responses ([7]; 28 patients with colorectal cancer): no objective responses
grade 4 rash AE ([8]; 2 mg monotherapy, five studies): four patients
LFT changes grade 3 events [8, 13]: 26
LFT changes grade 4 events [8, 13]: 6 patients
grade 1 or 2 pneumonitis ([8]; 2 mg monotherapy): three subjects
grade 3 diarrhea ([8]; 2 mg monotherapy): 17 patients
grade 3 pneumonitis ([8]; 2 mg monotherapy): six
grade 3 visual disorders ([8]; 2 mg monotherapy): six patients
grade 4 diarrhea ([8]; 2 mg monotherapy): none
grade 4 visual disorder ([8]; 2 mg monotherapy): one patient
cases of RPED ([8]; entire trametinib program as of 23 June 2013, monotherapy or combination): 14 cases
cases of RPED ([8]; integrated safety population, 2 mg once daily, five studies): five cases
CR, n (%) [9]: 4 (2%) n (%)
Objective Response Rate (95% CI) [9]: 22%
PR, n (%) [9]: 43 (20%) n (%)
6-month OS rate ([9]; in vivo): 81%
PFS Median, months (95% CI) ([9]; investigator-assessed): 4.8 (4.3, 4.9) months
PFS HR (95% CI) ([9]; trametinib vs chemotherapy, P<0.0001): 0.47 (0.34, 0.65)
fecal excretion, of the radioactive dose ([10]; 2 subjects): 39.2% and 35.0%
fecal excretion, of excreted radioactivity recovered ([10]; oral dose): > 80%
urinary excretion, of excreted radioactivity recovered ([10]; oral dose): < 19%
urinary excretion, of the radioactive dose ([10]; oral dose): < 10%
TGI (A549 xenograft): 75%
CYP 2B6 and 3A4 inducer (CYP 2B6 and 3A4): weak
inhibitor of CYP 1A2, 2A6, 2B6, 2C9, 2C19, 2D6 and 3A4 (CYP enzymes): not an inhibitor
inhibitor of CYP1A2, CYP2A6, CYP2B6, CYP2D6, and CYP3A4 (CYP enzymes; in vitro studies): not an inhibitor
inhibitor of CYP 2C8 (CYP enzymes; in vitro): in vitro inhibitor
best response CRs [11, 14]: 3
best response PD [11, 14]: 1
best response SD [11, 14]: 7
PRs ([11]; 26 patients with wild-type RAS or unknown mutation): 2
patients withdrew due to an AE ([11]; AML or MDS, 1-2 mg QD): 23%
inhibitor of P-gp, BCRP, OATP1B1, OATP1B3, OAT1, OAT3, OCT2 and MATE1 ([12]; at systemic concentrations that are not clinically relevant): in vitro inhibitor
inhibitor of MRP2 or BSEP [12]: not an inhibitor
